# Experimental data as given in patent US9765074B2, “Inhibitors of the renal outer medullary potassium channel” (Merck Sharp & Dohme Corp., priority 2013, dated 2017).
# pIC50: −log10 of the molar value.
# Target: T1, hROMK (hKir1.1) (Homo sapiens, UniProt P48048)
# T1 construct: expressed in transfected cells
# T1 sequence (P48048 1-391): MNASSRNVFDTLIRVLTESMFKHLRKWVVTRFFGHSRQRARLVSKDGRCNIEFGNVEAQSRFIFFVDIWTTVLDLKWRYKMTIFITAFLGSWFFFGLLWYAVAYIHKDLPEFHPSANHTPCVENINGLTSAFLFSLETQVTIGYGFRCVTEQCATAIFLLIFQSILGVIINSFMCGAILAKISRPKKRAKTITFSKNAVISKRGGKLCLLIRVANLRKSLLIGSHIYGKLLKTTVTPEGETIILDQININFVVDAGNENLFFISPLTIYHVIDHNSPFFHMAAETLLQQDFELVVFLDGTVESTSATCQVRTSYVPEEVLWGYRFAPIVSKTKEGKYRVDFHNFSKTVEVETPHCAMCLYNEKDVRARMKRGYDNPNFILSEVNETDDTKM
# Assay: Thallium Flux Assay (ROMK channel functional thallium flux, FLIPR-Tetra)
# Format: cell-based
# Details: HEK293 cells stably expressing hROMK (hKir1.1); 30 min compound incubation
# Procedure: The following Thallium Flux Assay was performed on each of the final product compounds in the Examples.
# Cell Culture Conditions—HEK293 cells stably expressing hROMK (hKir1.1) were grown at 37° C. in a 10% CO2 humidified incubator in complete growth media: Dulbecco's Modified Eagle Medium supplemented with non-essential amino acids, Penicillin/Streptomycin/Glutamine, G418 and FBS. At >80% confluency, aspirate the media from the flask and rinse with 10 mL Calcium/Magnesium-free PBS. Add 5 mL of 1× trypsin (prepared in Ca/Mg Free PBS) to T-225 flask and return flask to 37° C./CO2 incubator for 2-3 minutes. To dislodge the cell, gently bang the side of the flask with your hand. Triturate the cells completely and then transfer the cells to 25 mL complete media. Centrifuge at 1,500 rpm for 6 min followed by resuspension in complete growth media and determine cell concentration. For typical re-seeding, 4E6 cells/T-225 flask will attain >80% confluency in 4 days. Under ideal growth conditions and appropriate tissue culture practices, this cell line is stable for 40-45 passages. FluxOR Kit Components (Invitrogen F10017) • FluxOR™ Reagent (Component A) • FluxOR™ Assay Buffer (Component B)—10× Concentrate • PowerLoad™ Concentrate (Component C)—100× Concentrate • Probenecid (Component D)—Lyophilized sample is kept at −20° C. Water soluble, 100× after solubilization in 1 mL water. Store at 4° C. • FluxOR™ Chloride-free Buffer (Component E)—5× Concentrate • Potassium sulfate (K2SO4) Concentrate (Component F)—125 mM in water. Store at 4° C. • Thallium sulfate (Tl2SO4) Concentrate (Component G)—50 mM in water. Store at 4° C. • DMSO (dimethyl sulfoxide, Component H)—1 mL (100%) Reagent Preparation: FluxOR Working Solutions • 1000× FluxOR™ Reagent: Reconstitute a vial of component A in 100 μl DMSO; Mix well; Store 10 μl aliquots at −20° C. • 1× FluxOR™ Assay Buffer: Dilute Component B 10-fold with water; Adjust pH to 7.4 with Hepes/NaOH; Filter and store at 4° C. • Probenecid/Assay Buffer: 100 mL of 1× FluxOR™ Assay Buffer; 1 mL of reconstituted component D; Store at 4° C. • Loading Buffer (per microplate): 10 μl 1000× FluxOR™ Reagent; 100 μl component C; 10 mL Probenecid/Assay Buffer • Compound Buffer (per microplate): 20 mL Probenecid/Assay Buffer; 0.3 mM ouabain (10 mM ouabain in water can be stored in amber bottle/aluminum foil at room temperature); Test compound • 1× FluxOR™ Chloride-Free Buffer: Prepare 1× working solution in water. Can be stored at room temperature • Stimulant Buffer (prepared at 5× final concentration in 1× FluxOR™ Chloride-Free Buffer): 7.5 mM Thallium sulfate and 0.75 mM Potassium sulfate (to give a final assay concentration of 3 mM Thallium/0.3 mM Potassium). Store at 4° C. when not in use. If kept sterile, this solution is good for months. Assay Protocol—The ROMK channel functional thallium flux assay is performed in 384 wells, using the FLIPR-Tetra instrument. HEK-hKir1.1 cells are seeded in Poly-D-Lysine microplates and kept in a 37° C.-10% CO2 incubator overnight. On the day of the experiment, the growth media is replaced with the FluxOR™ reagent loading buffer and incubated, protected from light, at ambient temperature (23-25° C.) for 90 min. The loading buffer is replaced with assay buffer±test compound followed by 30 min incubation at ambient temperature, where the Thallium/Potassium stimulant is added to the microplate. Step Protocol • 1. Seed HEK-hKir1.1 cells (50 μl at 20,000 cells/well) in 384-well PDL coated Microplates • 2. Allow cells to adhere overnight in humidified 37° C./10% CO2 incubator • 3. Completely remove cell growth media from microplate and replace with 25 μl loading buffer • 4. Incubate Microplate at room temperature, protected form light, for 90 min • 5. Remove loading buffer and replace with 25 μl 1× Assay Buffer±test compound. • 6. Incubate microplate at room temperature, protected from light, for 30 min • 7. At FLIPR-Tetra 384: Add stimulant (Thallium/Potassium) solution to microplate and monitor fluorescence. […]
row,pIC50,SMILES
1,7.40,"CC1(C)CC2(CCN(C[C@H](O)c3cnc(-n4cnnn4)cn3)CC2)C(=O)N1C1=CC(=O)OC1 [Example 164, 8-{(2S)-2-hydroxy-2-[5-(1H-tetrazol-1-yl)pyrazin-2-yl]ethyl}-3,3-dimethyl-1-oxo-2-(5-oxo-2,5-dihydrofuran-3-yl)-2-aza-8-azoniaspiro[4.5]decane]"
2,7.70,"CC1=C(N2CCC3(CCN(C[C@@H](O)c4ccc(-n5cnnn5)nc4)CC3F)C2=O)COC1=O (single isomer, unassigned) [Example 193]"
3,8.00,"CCC1CC2(CCN(C[C@H](O)c3ccc(-n4cnnn4)nc3)CC2)C(=O)N1C1=CC(=O)OC1 (mixture of isomers) [Example 219, 3-ethyl-8-{(2R)-2-hydroxy-2-[6-(1H-tetrazol-1-yl)pyridin-3-yl]ethyl}-2-(5-oxo-2,5-dihydrofuran-3-yl)-2,8-diazaspiro[4.5]decan-1-one]"
4,7.10,"CC1=C(N2C(=O)C3(CCN(C[C@H](O)c4cnc(-n5cnnn5)nc4)CC3)CC2C)COC1=O (single isomer, unassigned) [Example 113]"
5,7.30,"CC1=C(N2C=CC3(CCN(C[C@H](O)c4ccc(-n5cnnn5)nn4)CC3)C2=O)COC1=O [Example 146, 8-{(2S)-2-hydroxy-2-[6-(1H-tetrazol-1-yl)pyridazin-3-yl]ethyl}-2-(4-methyl-5-oxo-2,5-dihydrofuran-3-yl)-1-oxo-2-aza-8-azoniaspiro[4.5]dec-3-ene]"
6,7.70,"CC1=C(N2CCC3(CCN(C[C@H](O)c4ccc(-n5cnnn5)c(C)n4)CC3)C2=O)COC1=O [Example 30, 8-{(2S)-2-hydroxy-2-[6-methyl-5-(1H-tetrazol-1-yl)pyridin-2-yl]ethyl}-2-(4-methyl-5-oxo-2,5-dihydrofuran-3-yl)-1-oxo-2-aza-8-azoniaspiro[4.5]decane]"
7,7.10,"O=C1C=C(N2CCC3(CCN(C[C@H](O)c4cnc(-n5cnnn5)nc4)CC3)C2=O)CO1 [Example 9, 8-{(2R)-2-hydroxy-2-[2-(1H-tetrazol-1-yl)pyrimidin-5-yl]ethyl}-1-oxo-2-(5-oxo-2,5-dihydrofuran-3-yl)-2-aza-8-azoniaspiro[4.5]decane]"
8,7.70,"CC1=C(N2CCC3(CCN(C[C@@H](O)c4cnc(-n5cnnn5)c(F)c4)CC3)C2=O)COC1=O [Example 27, 8-{(2S)-2-[5-fluoro-6-(1H-tetrazol-1-yl)pyridin-3-yl]-2-hydroxyethyl}-2-(4-methyl-5-oxo-2,5-dihydrofuran-3-yl)-1-oxo-2-aza-8-azoniaspiro[4.5]decane]"
9,7.40,"CC1=CN(C2=C(C)C(=O)OC2)C(=O)C12CCN(C[C@H](O)c1ccc(-n3cnnn3)nc1)CC2 [Example 175, 8-{(2R)-2-hydroxy-2-[6-(1H-tetrazol-1-yl)pyridin-3-yl]ethyl}-4-methyl-2-(4-methyl-5-oxo-2,5-dihydrofuran-3-yl)-1-oxo-2-aza-8-azoniaspiro[4.5]dec-3-ene]"
10,7.30,"COCC1=C(N2CCC3(CCN(C[C@H](O)c4ccc(-n5cnnn5)nc4)CC3)C2=O)COC1=O [Example 182, 8-{(2R)-2-hydroxy-2-[6-(1H-tetrazol-1-yl)pyridin-3-yl]ethyl}-2-[4-(methoxymethyl)-5-oxo-2,5-dihydrofuran-3-yl]-2,8-diazaspiro[4.5]decan-1-one]"
11,7.40,"O=C1C=C(N2C=CC3(CCN(CCc4ccc(-n5cnnn5)nn4)CC3)C2=O)CO1 [Example 249, 1-oxo-2-(5-oxo-2,5-dihydrofuran-3-yl)-8-{2-[6-(1H-tetrazol-1-yl)pyridazin-3-yl]ethyl}-2-aza-8-azoniaspiro[4.5]dec-3-ene]"
12,7.15,"CC1(O)CC2(CCN(C[C@H](O)c3ccc(-n4cnnn4)nc3)CC2)C(=O)N1C1=CC(=O)OC1 (stereo partly drawn) [Example 157, 3-hydroxy-8-{(2R)-2-hydroxy-2-[6-(1H-tetrazol-1-yl)pyridin-3-yl]ethyl}-3-methyl-1-oxo-2-(5-oxo-2,5-dihydrofuran-3-yl)-2-aza-8-azoniaspiro[4.5]decane]"
13,7.10,"CC1=C(N2CCC3(CCN(C[C@@H](C)c4ccc(-n5cnnn5)nn4)CC3)C2=O)COC1=O (single isomer, unassigned) [Example 291]"
14,7.52,"CC1=C(N2CCC3(CCN(C[C@@H](O)c4ccc(-n5cnnn5)nc4)CC3)C2=O)COC1=O [Example 19, 8-{(2S)-2-hydroxy-2-[6-(1H-tetrazol-1-yl)pyridin-3-yl]ethyl}-2-(4-methyl-5-oxo-2,5-dihydrofuran-3-yl)-1-oxo-2-aza-8-azoniaspiro[4.5]decane]"
15,7.00,"CC1=CN(C2=C(C)C(=O)OC2)C(=O)C12CCN(C[C@H](O)c1ccc(-n3cnnn3)nn1)CC2 [Example 166, 8-{(2S)-2-hydroxy-2-[6-(1H-tetrazol-1-yl)pyridazin-3-yl]ethyl}-4-methyl-2-(4-methyl-5-oxo-2,5-dihydrofuran-3-yl)-1-oxo-2-aza-8-azoniaspiro[4.5]dec-3-ene]"
16,8.00,"CC1=C(N2CCC3(CCN(C[C@H](O)c4ccc(-n5cnnn5)nc4)CC3F)C2=O)COC1=O (single isomer, unassigned) [Example 192]"
17,7.40,"COC1CN(C2=CC(=O)OC2)C(=O)C12CCN(C[C@H](O)c1ccc(-n3cnnn3)nc1)CC2 (mixture of isomers) [Example 207, 8-((R)-2-(6-(1H-tetrazol-1-yl)pyridin-3-yl)-2-hydroxyethyl)-4-methoxy-2-(5-oxo-2,5-dihydrofuran-3-yl)-2,8-diazaspiro[4.5]decan-1-one]"
18,7.70,"C[C@H]1CC2(CCN(CCc3cnc(-n4cnnn4)cn3)CC2)C(=O)N1C1=CC(=O)OC1 [Example 246, 3(S)-methyl-1-oxo-2-(5-oxo-2,5-dihydrofuran-3-yl)-8-{2-[5-(1H-tetrazol-1-yl)pyrazin-2-yl]ethyl}-2-aza-8-azoniaspiro[4.5]decane]"

row,SMILES,pIC50
1,"CC1=C(N2CCC3(CC4CCC(C3)N4C[C@H](O)c3cnc(-n4cnnn4)cn3)C2=O)COC1=O (stereo partly drawn) [Example 48, (1R,5R)-8-{(2S)-2-hydroxy-2-[5-(1H-tetrazol-1-yl)pyrazin-2-yl]ethyl}-1′-(4-methyl-5-oxo-2,5-dihydrofuran-3-yl)-2′-oxospiro[8-azoniabicyclo[3.2.1]octane-3,3′-pyrrolidine]]",7.52
2,"CC1=C(N2CCC3(CC4COCC(C3)N4C[C@H](O)c3cnc(-n4cnnn4)cn3)C2=O)COC1=O (stereo partly drawn) [Example 181, 9-{(2S)-2-hydroxy-2-[5-(1H-tetrazol-1-yl)pyrazin-2-yl]ethyl}-1′-(4-methyl-5-oxo-2,5-dihydrofuran-3-yl)-2′H-spiro[7-oxa-9-azabicyclo[3.3.1]nonane-3,3′-pyrrolidin]-2′-one]",6.82
